Laboratory results from PubChem BioAssay (NCI).
Values joined by “and” are separate entries in the source; they are usually repeats but may differ in a detail not shown here. Equal entries are not always repeated.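 GI50 marks 50% less growth. TGI: concentration producing complete growth inhibition.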

Key:
Experiment in all cases: NCI tumour cell line growth inhibition, 384-well format
OVCAR-3 ovarian = system: OVCAR-3 ovarian
HOP-92 NSCLC = system: HOP-92 NSCLC
RXF 393 renal = system: RXF 393 renal
PC-3 prostate = system: PC-3 prostate
OVCAR-4 ovarian = system: OVCAR-4 ovarian
OVCAR-8 ovarian = system: OVCAR-8 ovarian
KM12 colon = system: KM12 colon
MDA-MB-435 melanoma = system: MDA-MB-435 melanoma
SR leukemia = system: SR leukemia
T-47D breast = system: T-47D breast
MDA-MB-231 breast = system: MDA-MB-231 breast
SK-MEL-2 melanoma = system: SK-MEL-2 melanoma
UACC-257 melanoma = system: UACC-257 melanoma
NCI-H522 lung = system: NCI-H522 lung
TK-10 renal = system: TK-10 renal
SW-620 colon = system: SW-620 colon
U251 glioblastoma = system: U251 glioblastoma
NCI-H460 NSCLC = system: NCI-H460 NSCLC
HL-60(TB) leukemia = system: HL-60(TB) leukemia
NCI-H23 lung = system: NCI-H23 lung
SK-MEL-5 melanoma = system: SK-MEL-5 melanoma
SNB-75 CNS = system: SNB-75 CNS
RPMI-8226 leukemia = system: RPMI-8226 leukemia
SF-539 CNS = system: SF-539 CNS
M14 melanoma = system: M14 melanoma
UACC-62 melanoma = system: UACC-62 melanoma
HS 578T breast = system: HS 578T breast
SF-295 CNS = system: SF-295 CNS
786-0 renal = system: 786-0 renal
OVCAR-5 ovarian = system: OVCAR-5 ovarian
DU-145 prostate = system: DU-145 prostate
HOP-62 NSCLC = system: HOP-62 NSCLC
CCRF-CEM leukemia = system: CCRF-CEM leukemia
HCT-15 colon = system: HCT-15 colon
CAKI-1 renal = system: CAKI-1 renal
SNB-19 CNS = system: SNB-19 CNS
HCC-2998 colon = system: HCC-2998 colon
EKVX NSCLC = system: EKVX NSCLC
NCI/ADR-RES ovarian = system: NCI/ADR-RES ovarian
NCI-H226 lung = system: NCI-H226 lung
SK-OV-3 ovarian = system: SK-OV-3 ovarian
SK-MEL-28 melanoma = system: SK-MEL-28 melanoma
K-562 leukemia = system: K-562 leukemia
A549 NSCLC = system: A549 NSCLC
IGROV1 ovarian = system: IGROV1 ovarian
HCT-116 colon = system: HCT-116 colon
UO-31 renal = system: UO-31 renal
A498 renal = system: A498 renal
HT29 colon = system: HT29 colon
MOLT-4 leukemia = system: MOLT-4 leukemia
BT-549 breast = system: BT-549 breast
SN12C renal = system: SN12C renal
COLO 205 colon = system: COLO 205 colon
SF-268 CNS = system: SF-268 CNS
ACHN renal = system: ACHN renal
MCF7 breast = system: MCF7 breast
LOX IMVI melanoma = system: LOX IMVI melanoma
MALME-3M melanoma = system: MALME-3M melanoma
MDA-MB-468 breast = system: MDA-MB-468 breast
NCI-H322M lung = system: NCI-H322M lung

For COc1cccc2c1C(=O)c1c(O)c3c(c(O)c1C2=O)C[C@@](O)(C(=O)CO)C[C@@H]3OC1CC(N)C(O)C(C)O1 (stereo partly specified), the GI50 (OVCAR-3 ovarian) was 73.4 nM and 116 nM, the TGI (OVCAR-3 ovarian) was 539 nM and 821 nM and the GI50 (HOP-92 NSCLC) was 24.6 nM and 35.9 nM and 66.9 nM. The GI50 (RXF 393 renal) was 37.2 nM and 41 nM and 117 nM, the TGI (RXF 393 renal) was 211 nM and 114 nM and 274 nM and the GI50 (PC-3 prostate) was 189 nM and 154 nM and 139 nM. The TGI (PC-3 prostate) was 765 nM and 626 nM and 467 nM, the GI50 (OVCAR-4 ovarian) was 310 nM and 246 nM and 263 nM and the TGI (OVCAR-4 ovarian) was 983 nM and 954 nM and 1910 nM. For the same compound, the GI50 (OVCAR-8 ovarian) was 76.4 nM and 55.9 nM and 58 nM, the TGI (OVCAR-8 ovarian) was 466 nM and 236 nM and 223 nM and the GI50 (KM12 colon) was 39.6 nM and 41 nM. The TGI (KM12 colon) was 423 nM and 212 nM, the GI50 (MDA-MB-435 melanoma) was 219 nM and 232 nM and 150 nM and the TGI (MDA-MB-435 melanoma) was 632 nM and 669 nM and 599 nM. The GI50 (SR leukemia) was 4 nM, the TGI (SR leukemia) was 7.78 nM and the GI50 (T-47D breast) was 32.9 nM and 32 nM and 40.8 nM. For the same compound, the GI50 (MDA-MB-231 breast) was 81.5 nM and 43.4 nM and 36.9 nM, the TGI (MDA-MB-231 breast) was 523 nM and 275 nM and 318 nM and the GI50 (SK-MEL-2 melanoma) was 56.5 nM and 86 nM and 68.1 nM. For the same compound, the TGI (SK-MEL-2 melanoma) was 128 nM and 179 nM and 130 nM, the GI50 (UACC-257 melanoma) was 109 nM and 118 nM and 125 nM and the TGI (UACC-257 melanoma) was 389 nM and 255 nM and 261 nM. For the same compound, the GI50 (NCI-H522 lung) was 25.3 nM and 18 nM and 11.1 nM, the TGI (NCI-H522 lung) was 75.6 nM and 69.7 nM and 117 nM and the GI50 (TK-10 renal) was 78 nM and 88.7 nM. The TGI (TK-10 renal) was 461 nM and 328 nM, the GI50 (SW-620 colon) was 23.3 nM and 44.8 nM and 19.6 nM and the TGI (SW-620 colon) was 463 nM and 741 nM and 501 nM. The GI50 (U251 glioblastoma) was 20 nM and 18.4 nM and 14.3 nM, the GI50 (NCI-H460 NSCLC) was 9.14 nM and the TGI (NCI-H460 NSCLC) was 86.1 nM and 98.9 nM. For the same compound, the GI50 (HL-60(TB) leukemia) was 5.95 nM and < 10 nM, the TGI (HL-60(TB) leukemia) was 14.5 nM and 11.8 nM and the GI50 (NCI-H23 lung) was 43 nM and 27.4 nM and 28.5 nM. The TGI (NCI-H23 lung) was 126 nM and 89 nM and 133 nM, the GI50 (SK-MEL-5 melanoma) was 41.1 nM and 13.1 nM and the TGI (SK-MEL-5 melanoma) was 166 nM and 58.6 nM. The GI50 (SNB-75 CNS) was 40.3 nM and 31.7 nM and 43.3 nM, the TGI (SNB-75 CNS) was 126 nM and 100 nM and 174 nM and the GI50 (RPMI-8226 leukemia) was 7.64 nM and 11.2 nM and < 10 nM. For the same compound, the TGI (RPMI-8226 leukemia) was 40.3 nM and 24.6 nM and 21.9 nM, the GI50 (SF-539 CNS) was 39.9 nM and 34.8 nM and 35.8 nM and the TGI (SF-539 CNS) was 264 nM and 168 nM and 173 nM. The GI50 (M14 melanoma) was 51.6 nM and 44.6 nM and 37.1 nM, the TGI (M14 melanoma) was 200 nM and 182 nM and 190 nM and the GI50 (UACC-62 melanoma) was 25.3 nM and 28.6 nM and 14.8 nM. For the same compound, the TGI (UACC-62 melanoma) was 133 nM and 155 nM and 142 nM, the GI50 (HS 578T breast) was 16.7 nM and 26.9 nM and 109 nM and the TGI (HS 578T breast) was 133 nM and 141 nM and 322 nM. For the same compound, the GI50 (SF-295 CNS) was 49.2 nM and 32.3 nM and 52.2 nM, the TGI (SF-295 CNS) was 169 nM and 135 nM and 447 nM and the GI50 ([…]-0 renal) was 42.9 nM and 25.3 nM and 46.5 nM. The TGI (786-0 renal) was 227 nM and 226 nM and 1070 nM, the GI50 (OVCAR-5 ovarian) was 194 nM and 260 nM and 159 nM and the TGI (OVCAR-5 ovarian) was 1040 nM and 2130 nM and 720 nM. The GI50 (DU-145 prostate) was 33.7 nM and 18.5 nM, the TGI (DU-145 prostate) was 148 nM and 214 nM and the GI50 (HOP-62 NSCLC) was 40.6 nM and 23.8 nM and 34.4 nM. For the same compound, the TGI (HOP-62 NSCLC) was 145 nM and 91.6 nM and 125 nM, the GI50 (CCRF-CEM leukemia) was 8.6 nM and < 11.2 nM and < 10 nM and the TGI (CCRF-CEM leukemia) was 27.4 nM and 19.4 nM and 17.7 nM. For the same compound, the GI50 (HCT-15 colon) was 202 nM and 111 nM and 89 nM, the TGI (HCT-15 colon) was 2130 nM and 1360 nM and 1490 nM and the GI50 (CAKI-1 renal) was 41.9 nM and 25 nM. For the same compound, the TGI (CAKI-1 renal) was 504 nM and 160 nM, the GI50 (SNB-19 CNS) was 36.2 nM and 32.2 nM and 34.3 nM and the GI50 (HCC-2998 colon) was 35.6 nM and 17.6 nM. The TGI (HCC-2998 colon) was 176 nM and 92.6 nM, the GI50 (EKVX NSCLC) was 165 nM and 248 nM and 419 nM and the TGI (EKVX NSCLC) was 704 nM and 1280 nM and 4790 nM. The GI50 (NCI/ADR-RES ovarian) was 5900 nM and 7690 nM and 22600 nM, the TGI (NCI/ADR-RES ovarian) was 24300 nM and 34300 nM and > 100000 nM and the GI50 (NCI-H226 lung) was 34.4 nM and 36.8 nM and 75.2 nM. For the same compound, the TGI (NCI-H226 lung) was 131 nM and 156 nM and 299 nM, the GI50 (SK-OV-3 ovarian) was 68.1 nM and 75.6 nM and 80.2 nM and the TGI (SK-OV-3 ovarian) was 334 nM and 377 nM and 409 nM. For the same compound, the GI50 (SK-MEL-28 melanoma) was 84.4 nM and 72.7 nM and 101 nM, the TGI (SK-MEL-28 melanoma) was 336 nM and 208 nM and 237 nM and the GI50 (K-562 leukemia) was 39.7 nM and 43.9 nM and 45.6 nM. The TGI (K-562 leukemia) was 340 nM and 245 nM and 229 nM, the GI50 (A549 NSCLC) was 58.7 nM and 26.3 nM and 41.3 nM and the TGI (A549 NSCLC) was 473 nM and 188 nM and 222 nM. The GI50 (IGROV1 ovarian) was 72.5 nM and 46.7 nM, the TGI (IGROV1 ovarian) was 1220 nM and 231 nM and the GI50 (HCT-116 colon) was 29.4 nM and 16.5 nM. The TGI (HCT-116 colon) was 972 nM and 151 nM, the GI50 (UO-31 renal) was 360 nM and 508 nM and 907 nM and the TGI (UO-31 renal) was 1630 nM and 1530 nM and 2280 nM. For the same compound, the GI50 (A498 renal) was 38.2 nM and 30.6 nM and 50.9 nM, the TGI (A498 renal) was 472 nM and 184 nM and 244 nM and the GI50 (HT29 colon) was 114 nM and 119 nM and 106 nM. For the same compound, the TGI (HT29 colon) was 490 nM and 303 nM and 263 nM, the GI50 (MOLT-4 leukemia) was 4.08 nM and < 10 nM and the TGI (MOLT-4 leukemia) was 7.81 nM. The GI50 (BT-549 breast) was 23.3 nM and 18.2 nM and 13.6 nM, the TGI (BT-549 breast) was 128 nM and 70.2 nM and 130 nM and the GI50 (SN12C renal) was 35.8 nM and 31.4 nM and 33.5 nM. The TGI (SN12C renal) was 162 nM and 166 nM and 181 nM, the GI50 (COLO 205 colon) was 17.8 nM and the TGI (COLO 205 colon) was 328 nM and 179 nM. The GI50 (SF-268 CNS) was 35.2 nM and 32.6 nM and 36.3 nM, the TGI (SF-268 CNS) was 207 nM and 138 nM and 213 nM and the GI50 (ACHN renal) was 69.2 nM and 64 nM and 171 nM. The TGI (ACHN renal) was 407 nM and 287 nM and 591 nM, the GI50 (MCF7 breast) was 34 nM and 22.8 nM and 19.1 nM and the TGI (MCF7 breast) was 3210 nM and 1370 nM and 12200 nM. The GI50 (LOX IMVI melanoma) was 32 nM and 23.9 nM and 21.9 nM, the TGI (LOX IMVI melanoma) was 235 nM and 157 nM and 163 nM and the GI50 (MALME-3M melanoma) was 38.1 nM and 45.6 nM and 54.7 nM. The TGI (MALME-3M melanoma) was 153 nM and 166 nM and 191 nM, the GI50 (MDA-MB-468 breast) was 26.2 nM and 14.8 nM and 12.7 nM and the TGI (MDA-MB-468 breast) was 70 nM and 36.6 nM and 28.3 nM. For the same compound, the GI50 (NCI-H322M lung) was 365 nM and 270 nM and 326 nM and the TGI (NCI-H322M lung) was 985 nM and 914 nM and 1830 nM.
